Where two headings read alike, the source gives them in different places.
Key:
[1] = tested on: lung cancer cells (line MV522); experiment: Cancer cell proliferation (MV522) assay; format: cell-based; conditions: MV522; Table 1; read-out: MV522 IC50
In short: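 MTT reduction read-out was taken 72 h after addition of test agents, with no prior serum starvation. Cells were plated beforehand at two thousand per well in RPMI1640 containing 10% FBS and 2 mM glutamine and allowed one day to adhere.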

[2] = in vitro; format: in vitro ADME, human; conditions: human liver microsomes, 5 µM test compound, 37 °C, 2 h
In short: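 HLM diluted to 5 mg/mL in 100 mM KPO4, preincubated 10 min at 37 °C with NADPH-regenerating system. Compound (5 µM final) incubated at 37 °C in triplicate, sampled at 0 and 2 h into ice-cold acetonitrile, then LC-MS analysis.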

[3] = biological target: LCK tyrosine kinase (Homo sapiens, UniProt P06239, C224D/P223M); experiment: LCK spectrophotometric assay; format: biochemical; conditions: Table 1; compound concentration 1 µM; read-out: Lck-P* (% inhibition)
Method: The spectrophotometric assay was carried out as described above for VEGF-R2, except for the following changes in concentration: LCK = 60 nM, MgCl2 = 0 mM, poly(E4Y1) = 20 mM.

[4] = in vivo; conditions: mouse, plasma, pH 2.3
[5] = vehicle PEG400:H2O pH 2.3 30:70
[6] = biological target: unphosphorylated VEGF-R2Δ50 (Homo sapiens, UniProt P35968, DEL940-989/E990V); experiment: biochemical; conditions: read-out: FLVK ** (% inhibition)
[7] = biological target: CDK2/Cyclin A complex (Homo sapiens, UniProt P24941); experiment: CDK2/Cyclin A assay ([32P]ATP incorporation into Rb fragment); format: biochemical; conditions: read-out: CDK2 * (% inhibition)
[8] = biological target: human FGF-R1 (Homo sapiens, UniProt P11362, C488A/C584S/L457V); experiment: FGF-R spectrophotometric assay; format: biochemical; conditions: Table 1; compound concentration 1 µM; read-out: FGF-P* (% inhibition)
Method: The spectrophotometric assay was carried out as described above for VEGF-R2, except for the following changes in concentration: FGF-R = 50 nM, ATP = 2 mM, and poly(E4Y1) =15 mM.

[9] = tested on: VEGF dependent retinal vascular development; experiment: In vivo assay of retinal vascular development in neonatal rats; parameters: species or system rat; conditions: Model P8, intravitreal, vehicle PEG/water 50:50
In short: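 Neonatal rats given compound by intravitreal injection, vehicle usually 50% PEG 400/50% 300 mM sucrose, with vehicle in contralateral eye. Retinas removed six days later, ADPase-stained and flat-mounted; stained vessel area quantified by imaging and expressed as percent regression versus vehicle eye.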

[10] = biological target: phosphorylated VEGF-R2Δ50 (Homo sapiens, UniProt P35968, DEL940-989/E990V); experiment: biochemical; conditions: read-out: FLVK -P** (% inhibition)
[11] = tested on: VEGF dependent retinal neovascularization; experiment: Neonatal rat model of retinopathy of prematurity; format: in vivo; conditions: Model ROP, intravitreal, 10 mg/ml, vehicle PEG/water 70:30

Sequence of LCK tyrosine kinase (P06239 223-509 P223M/C224D): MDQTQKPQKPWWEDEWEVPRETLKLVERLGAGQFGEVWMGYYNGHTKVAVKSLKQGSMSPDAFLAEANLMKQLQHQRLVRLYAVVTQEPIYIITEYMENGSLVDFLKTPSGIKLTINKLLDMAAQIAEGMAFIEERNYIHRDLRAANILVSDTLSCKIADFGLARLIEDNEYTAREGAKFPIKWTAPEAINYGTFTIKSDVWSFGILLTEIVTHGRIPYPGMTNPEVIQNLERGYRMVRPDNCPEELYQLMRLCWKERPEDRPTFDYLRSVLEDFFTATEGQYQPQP
Sequence of human FGF-R1 (P11362 456-766 L457V/C488A/C584S): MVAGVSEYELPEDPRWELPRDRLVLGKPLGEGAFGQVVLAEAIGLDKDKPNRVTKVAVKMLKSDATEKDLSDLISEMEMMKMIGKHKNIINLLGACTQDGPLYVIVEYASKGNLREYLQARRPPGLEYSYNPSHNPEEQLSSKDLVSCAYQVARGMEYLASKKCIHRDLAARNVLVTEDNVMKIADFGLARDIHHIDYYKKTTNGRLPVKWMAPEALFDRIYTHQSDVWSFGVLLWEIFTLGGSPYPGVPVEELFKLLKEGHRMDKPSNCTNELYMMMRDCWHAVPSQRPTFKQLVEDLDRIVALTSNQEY
Sequence of unphosphorylated VEGF-R2Δ50 (P35968 with tags, fused parts or gaps DEL940-989/E990V limits assumed): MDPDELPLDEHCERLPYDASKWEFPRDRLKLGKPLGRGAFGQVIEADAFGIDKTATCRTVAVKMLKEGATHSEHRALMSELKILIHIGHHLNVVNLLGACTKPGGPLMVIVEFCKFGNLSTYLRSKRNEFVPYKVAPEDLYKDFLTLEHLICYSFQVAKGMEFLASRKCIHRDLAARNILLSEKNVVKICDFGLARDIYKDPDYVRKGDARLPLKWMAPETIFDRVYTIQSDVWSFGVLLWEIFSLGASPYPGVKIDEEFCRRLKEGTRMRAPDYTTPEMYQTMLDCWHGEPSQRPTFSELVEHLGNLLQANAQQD
Sequence of phosphorylated VEGF-R2Δ50 (P35968 with tags, fused parts or gaps DEL940-989/E990V limits assumed): as above

For `CCn1nc(C)cc1C(=O)Nc1cccc(Oc2ccc3c(/C=C/c4ccccn4)n[nH]c3c2)c1` [Reference Example 31(d), 6-[3-((1-Ethyl-3-methyl-1H-pyrazol-5-yl)carboxamido)phenoxy]-3-E-[2-(pridin-2-yl)ethenyl]-1H-indazole], the IC50 [1] was 5.2 µM, the “% remain (HLM, 2 h)” value [2] was 110% and the inhibition at 1 µM [3] was 52%. The AUC ([4]; ip, 25 mg/kg) was 238 µg·h/mL, the AUC ([4]; po, 10 mg/kg) was 49.1 µg·h/mL and the AUC ([4]; po, 25 mg/kg) was 204 µg·h/mL. For the same molecule, the AUC ([4]; po, 50 mg/kg) was 431 µg·h/mL, the T1/2 ([5]; IP, 25 mg/kg) was 5.3 h and the T1/2 ([5]; PO, 10 mg/kg) was 3.1 h. The T1/2 ([5]; PO, 25 mg/kg) was 1.9 h, the T1/2 ([5]; PO, 50 mg/kg) was 39.3 h and the inhibition at 0.05 µM [6] was 96%. The inhibition at 1 µM [7] was 5%.

In the case of `C#CCNC(=O)c1ccccc1Sc1ccc2c(/C=C/c3ccccn3)n[nH]c2c1` [Reference Example 35(cc), 6-[2-(2-Propynylcarbamoyl)phenylsulfany]-3-E-[2-(pyridin-2-yl)ethenyl]-1H-indazole], the “% remain (HLM, 2 h)” value [2] is reported as 31%, the inhibition at 1 µM [3] is reported as 15% and the inhibition at 1 µM [8] is reported as 74%. It also gave an inhibition at 0.05 µM [6] of 89% and an inhibition at 1 µM [7] of 5%.

In the case of `CCONC(=O)c1ccccc1Sc1ccc2c(/C=C/c3ccccn3)n[nH]c2c1` [Reference Example 35(dd), 6-[2-(ethoxycarbamoyl)phenylsufanyl]-3-E-[2-(pyridin-2-yl)ethenyl]-1H-indazole], the “Initial Evaluation” value ([9]; 5 mg/ml) is reported as “++/+++ var”, the “% remain (HLM, 2 h)” value [2] is reported as 26% and the inhibition at 1 µM [3] is reported as 17%. It also gave an inhibition at 1 µM [7] of 7%.

For `CC(C)ONC(=O)c1ccccc1Sc1ccc2c(/C=C/c3ccccn3)n[nH]c2c1` [Reference Example 35(k)], the “% remain (HLM, 2 h)” value [2] was 14%, the inhibition at 1 µM [3] was 6% and the inhibition at 1 µM [8] was 34%. The inhibition at 0.05 µM [6] was 85% and the inhibition at 1 µM [7] was 8%.

For `O=C(NNc1ccccn1)c1ccccc1Sc1ccc2c(/C=C/c3ccccn3)n[nH]c2c1` [Reference Example 35(n), 6-[2-(N^2-(pyrid-2-ylhydrazino)carbonyl)phenylsulfanyl]-3-E-[2-(pyridin-2-yl)ethenyl]-1H-indazole], the IC50 [1] was 5.1 µM, the “% remain (HLM, 2 h)” value [2] was 47% and the inhibition at 1 µM [3] was 58%. It also gave an inhibition at 1 µM [7] of 4%.

For `CCn1nc(C)cc1C(=O)Nc1cccc(C(=O)c2ccc3c(/C=C/c4ccccn4)n[nH]c3c2)c1` [Reference Example 41(a), 6-[3-((1-Ethyl-3-methyl-1H-pyrazol-5-yl)carboxamido)benzoyl]. 3-E-[2-(pyridin-2-yl)ethenyl]-1H-indazole], the “% Inhibition” value ([9]; 0.5 mg/ml) was 0%, the inhibition at 0.05 µM [10] was 94% and the “% remain (HLM, 2 h)” value [2] was 96%. The inhibition at 1 µM [3] was 50%, the “% Inhibition” value [11] was 64% and the “Initial Evaluation” value [11] was “+++ (three pluses give to retinas with near total regression (approximately 75% or greater))”. For the same molecule, the inhibition at 1 µM [7] was 0%.

In the case of `CCn1nc(C)cc1C(=O)Nc1cc(C(=O)c2ccc3c(/C=C/c4ccccn4)n[nH]c3c2)ccc1C` [Reference Example 41(ee), 6-[3-((1-Ethyl-3-methyl-1H-pyrazol-5-yl)carboxamido)-4-methylbenzoyl]-3-E-[2-(pyridin-2-yl)ethenyl]-1H-indazole], the IC50 [1] is reported as 9.4 µM, the “% remain (HLM, 2 h)” value [2] is reported as 47% and the inhibition at 1 µM [3] is reported as 13%. The inhibition at 1 µM [8] was 94% and the inhibition at 1 µM [7] was 0%.

With `CCCn1nc(C)cc1C(=O)Nc1cccc(C(=O)c2ccc3c(/C=C/c4ccccn4)n[nH]c3c2)c1` [Reference Example 41(r)] the “% remain (HLM, 2 h)” value [2] was 83%, the inhibition at 1 µM [3] was 55% and the inhibition at 1 µM [8] was 92%. The inhibition at 0.05 µM [6] was 100% and the inhibition at 1 µM [7] was 0%.

— patent EP1614683B1, “Indazole compounds and pharmaceutical compositions for inhibiting protein kinases, and methods for their use” (priority 1999, dated 2001)
